Measurements from ChEMBL document CHEMBL3044810, “Synthesis and herbicidal activity of alkyl 1-(3-trifluoromethylphenoxyacetoxy)-1-substituted methylphosphonates” (J Pestic Sci, 2007).

Key:
Brassica napus [1] = experiment: Pre-emergence herbicidal activity against Brassica napus (oilseed rape) assessed as growth inhibition at 1.5 ai kg/ha under green house conditions; assay type: functional
Medicago sativa [2] = experiment: Pre-emergence herbicidal activity against Medicago sativa (alfalfa) assessed as growth inhibition at 1.5 ai kg/ha under green house conditions; assay type: functional
Echinochloa crus-galli [3] = experiment: Pre-emergence herbicidal activity against Echinochloa crus-galli (barnyard grass) assessed as growth inhibition at 1.5 ai kg/ha under green house conditions; assay type: functional
Echinochloa crus-galli [4] = experiment: Post-emergence herbicidal activity against Echinochloa crus-galli (barnyard grass) assessed as growth inhibition at 1.5 ai kg/ha under green house conditions; assay type: functional
Digitaria sanguinalis [5] = experiment: Post-emergence herbicidal activity against Digitaria sanguinalis (hairy crabgrass) assessed as growth inhibition at 1.5 ai kg/ha under green house conditions; assay type: functional
Amaranthus retroflexus [6] = experiment: Pre-emergence herbicidal activity against Amaranthus retroflexus assessed as growth inhibition at 1.5 ai kg/ha under green house conditions; assay type: functional
Medicago sativa [7] = experiment: Post-emergence herbicidal activity against Medicago sativa (alfalfa) assessed as growth inhibition at 1.5 ai kg/ha under green house conditions; assay type: functional
Digitaria sanguinalis [8] = experiment: Pre-emergence herbicidal activity against Digitaria sanguinalis (hairy crabgrass) assessed as growth inhibition at 1.5 ai kg/ha under green house conditions; assay type: functional
Amaranthus retroflexus [9] = experiment: Post-emergence herbicidal activity against Amaranthus retroflexus assessed as growth inhibition at 1.5 ai kg/ha under green house conditions; assay type: functional
Cucumis sativus = experiment: Pre-emergence growth inhibition of Cucumis sativus (cucumber) under green house conditions; assay type: functional, organism-based
Brassica napus [10] = experiment: Post-emergence herbicidal activity against Brassica napus (oilseed rape) assessed as growth inhibition at 1.5 ai kg/ha under green house conditions; assay type: functional

COP(=O)(OC)C(C)OC(=O)COc1cccc(Cl)c1Cl (stereo unspecified)
growth inhibition (GI) (Brassica napus [1]): 0% | growth inhibition (GI) (Medicago sativa [2]): 8.3% | growth inhibition (GI) (Echinochloa crus-galli [3]): 19.1% | growth inhibition (GI) (Echinochloa crus-galli [4]): 13.6% | growth inhibition (GI) (Digitaria sanguinalis [5]): 35.5% | growth inhibition (GI) (Amaranthus retroflexus [6]): 16.7% | growth inhibition (GI) (Medicago sativa [7]): 0% | growth inhibition (GI) (Digitaria sanguinalis [8]): 0% | growth inhibition (GI) (Amaranthus retroflexus [9]): 43.8% | IC50 (Cucumis sativus): 74.11 µg/g | growth inhibition (GI) (Brassica napus [10]): 23.3%

COP(=O)(OC)C(C)OC(=O)COc1cccc(F)c1 (stereo unspecified)
growth inhibition (GI) (Brassica napus [1]): 0% | growth inhibition (GI) (Medicago sativa [2]): 0% | growth inhibition (GI) (Echinochloa crus-galli [3]): 4.4% | growth inhibition (GI) (Echinochloa crus-galli [4]): 17.8% | growth inhibition (GI) (Digitaria sanguinalis [5]): 22.7% | growth inhibition (GI) (Amaranthus retroflexus [6]): 0% | growth inhibition (GI) (Medicago sativa [7]): 0% | growth inhibition (GI) (Digitaria sanguinalis [8]): 0% | growth inhibition (GI) (Amaranthus retroflexus [9]): 0% | IC50 (Cucumis sativus): 111.13 µg/g | growth inhibition (GI) (Brassica napus [10]): 0%

COP(=O)(OC)C(C)OC(=O)COc1ccc(F)cc1F (stereo unspecified)
growth inhibition (GI) (Brassica napus [1]): 39.3% | growth inhibition (GI) (Medicago sativa [2]): 52.1% | growth inhibition (GI) (Echinochloa crus-galli [3]): 36% | growth inhibition (GI) (Echinochloa crus-galli [4]): 20.2% | growth inhibition (GI) (Digitaria sanguinalis [5]): 48.5% | growth inhibition (GI) (Amaranthus retroflexus [6]): 38.9% | growth inhibition (GI) (Medicago sativa [7]): 49.4% | growth inhibition (GI) (Digitaria sanguinalis [8]): 73.6% | growth inhibition (GI) (Amaranthus retroflexus [9]): 77.5% | IC50 (Cucumis sativus): 0.59 µg/g | growth inhibition (GI) (Brassica napus [10]): 61%

COP(=O)(OC)C(C)OC(=O)COc1cc(F)cc(F)c1 (stereo unspecified)
growth inhibition (GI) (Brassica napus [1]): 0% | growth inhibition (GI) (Medicago sativa [2]): 10.4% | growth inhibition (GI) (Echinochloa crus-galli [3]): 0% | growth inhibition (GI) (Echinochloa crus-galli [4]): 3.8% | growth inhibition (GI) (Digitaria sanguinalis [5]): 27.2% | growth inhibition (GI) (Amaranthus retroflexus [6]): 0% | growth inhibition (GI) (Medicago sativa [7]): 0% | growth inhibition (GI) (Digitaria sanguinalis [8]): 0% | growth inhibition (GI) (Amaranthus retroflexus [9]): 14.9% | IC50 (Cucumis sativus): 93.5 µg/g | growth inhibition (GI) (Brassica napus [10]): 0%

COP(=O)(OC)C(OC(=O)COc1cccc(C(F)(F)F)c1)c1ccc(C)cc1 (stereo unspecified)
growth inhibition (GI) (Brassica napus [1]): 50.4% | growth inhibition (GI) (Medicago sativa [2]): 100% | growth inhibition (GI) (Echinochloa crus-galli [3]): 80.4% | growth inhibition (GI) (Echinochloa crus-galli [4]): 23.6% | growth inhibition (GI) (Digitaria sanguinalis [5]): 0% | growth inhibition (GI) (Amaranthus retroflexus [6]): 100% | growth inhibition (GI) (Medicago sativa [7]): 91.2% | growth inhibition (GI) (Digitaria sanguinalis [8]): 95.7% | growth inhibition (GI) (Amaranthus retroflexus [9]): 96.2% | IC50 (Cucumis sativus): 4.04 µg/g | growth inhibition (GI) (Brassica napus [10]): 14.2%

COP(=O)(OC)C(OC(=O)COc1cccc(C(F)(F)F)c1)c1ccccc1Cl (stereo unspecified)
growth inhibition (GI) (Brassica napus [1]): 61% | growth inhibition (GI) (Medicago sativa [2]): 100% | growth inhibition (GI) (Echinochloa crus-galli [3]): 54% | growth inhibition (GI) (Echinochloa crus-galli [4]): 23.5% | growth inhibition (GI) (Digitaria sanguinalis [5]): 36% | growth inhibition (GI) (Amaranthus retroflexus [6]): 100% | growth inhibition (GI) (Medicago sativa [7]): 100% | growth inhibition (GI) (Digitaria sanguinalis [8]): 97.9% | growth inhibition (GI) (Amaranthus retroflexus [9]): 100% | IC50 (Cucumis sativus): 3.57 µg/g | growth inhibition (GI) (Brassica napus [10]): 54.6%

COP(=O)(OC)C(OC(=O)COc1cccc(C(F)(F)F)c1)c1ccc(Cl)cc1 (stereo unspecified)
growth inhibition (GI) (Brassica napus [1]): 38.6% | growth inhibition (GI) (Medicago sativa [2]): 89.8% | growth inhibition (GI) (Echinochloa crus-galli [3]): 84.2% | growth inhibition (GI) (Echinochloa crus-galli [4]): 0% | growth inhibition (GI) (Digitaria sanguinalis [5]): 12% | growth inhibition (GI) (Amaranthus retroflexus [6]): 100% | growth inhibition (GI) (Medicago sativa [7]): 100% | growth inhibition (GI) (Digitaria sanguinalis [8]): 91.5% | growth inhibition (GI) (Amaranthus retroflexus [9]): 88.5% | IC50 (Cucumis sativus): 3.16 µg/g | growth inhibition (GI) (Brassica napus [10]): 57.4%

COP(=O)(OC)C(OC(=O)COc1ccc([N+](=O)[O-])cc1)c1ccccc1 (stereo unspecified)
growth inhibition (GI) (Brassica napus [1]): -2.78% | growth inhibition (GI) (Echinochloa crus-galli [3]): 0.8% | growth inhibition (GI) (Echinochloa crus-galli [4]): 0% | growth inhibition (GI) (Digitaria sanguinalis [5]): -5.2% | growth inhibition (GI) (Digitaria sanguinalis [8]): 0% | IC50 (Cucumis sativus): 223 µg/g | growth inhibition (GI) (Brassica napus [10]): 5.49%

COP(=O)(OC)C(C)OC(=O)COc1ccccc1 (stereo unspecified)
growth inhibition (GI) (Brassica napus [1]): 7.1% | growth inhibition (GI) (Medicago sativa [2]): 27.2% | growth inhibition (GI) (Echinochloa crus-galli [3]): 0% | growth inhibition (GI) (Echinochloa crus-galli [4]): 12% | growth inhibition (GI) (Digitaria sanguinalis [5]): 0% | growth inhibition (GI) (Amaranthus retroflexus [6]): 0% | growth inhibition (GI) (Medicago sativa [7]): 9.4% | growth inhibition (GI) (Digitaria sanguinalis [8]): 0% | growth inhibition (GI) (Amaranthus retroflexus [9]): 5% | IC50 (Cucumis sativus): 89.1 µg/g | growth inhibition (GI) (Brassica napus [10]): 21%

CCOP(=O)(OCC)C(OC(=O)COc1cccc(C(F)(F)F)c1)c1ccc2c(c1)OCO2 (stereo unspecified)
growth inhibition (GI) (Brassica napus [1]): 12.6% | growth inhibition (GI) (Medicago sativa [2]): 93.2% | growth inhibition (GI) (Echinochloa crus-galli [3]): 80.4% | growth inhibition (GI) (Echinochloa crus-galli [4]): 0% | growth inhibition (GI) (Digitaria sanguinalis [5]): 24% | growth inhibition (GI) (Amaranthus retroflexus [6]): 95.5% | growth inhibition (GI) (Medicago sativa [7]): 100% | growth inhibition (GI) (Digitaria sanguinalis [8]): 100% | growth inhibition (GI) (Amaranthus retroflexus [9]): 88.5% | IC50 (Cucumis sativus): 5.91 µg/g | growth inhibition (GI) (Brassica napus [10]): 61.7%
